# Source: patent publication US20100239501A1, “GENE SENSITIVE TO BONE/JOINT DISEASE AND USE THEREOF” (RIKEN, priority 2007, published 2010)
# What was measured:
# EDG2 = EDG2 (Homo sapiens, UniProt Q92633); assay: Intracellular Ca2+ concentration (FLIPR tetra) in McA-RH7777 cells stably expressing EDG2; type: cell-based; design: Dainippon Pharmaceutical Co., Ltd. (cells); host or cells: McA-RH7777; details: 0.03 to 10 μM LPA
# Procedure: A forcible expression vector comprising an ORF sequence of human EDG2 [hEDG2-pcDNA3.1(+)] was purchased from UMR cDNA Resource Center. This plasmid was introduced into McA-RH7777 (Dainippon Pharmaceutical Co., Ltd.) using Lipofectamine LTX (Invitrogen), and the cells were cultured in a medium containing Geneticin for 14 to 20 days to acquire cells that stably express EDG2.
# Next, an evaluation was made using FLIPR tetra (Molecular Devices) to confirm that stimulation with LPA raised intracellular Ca concentrations via the EDG2 expressed. That is, these cells were seeded to a 384-well plate, 0.03 to 10 μM LPA (Sigma) was added to each well, and it was confirmed that rises in intracellular Ca^2+ concentration occurred. LPA dose-dependently.
# [1] = tested on: Normal human knee articular cartilage cells (NHAC-kn); assay: Inflammatory cytokine gene expression induction by LPA in human articular cartilage cells; type: cell-based; details: 10 μM LPA, n=4
# Procedure: EDG2 is a GPCR having lysophosphatidic acid (LPA) as a ligand thereof. For LPA, four receptors, including EDG2, have been reported (EDG2, EDG4, EDG7 and GPR23). To analyze the tissue distributions of these four LPA receptors, an expression quantitation analysis by quantitative real-time PCR in various human tissues was performed. On 500 ng of total RNA of each of various human tissues (Human Total RNA Master Panel, Clontech), reverse transcription was performed using Multiscribe reverse transcriptase (Applied biosystems) and a random hexamer, whereby a cDNA was obtained. Quantitation of the LPA receptor genes was performed using QuantiTect STBR Green PCR (Qiagen) on the ABI PRISM 7700 sequence detection system (Applied biosystems) as directed in the documentation attached. The number of copies of each gene was calculated using a working curve. […]
# The inflammatory cytokine expression induction reaction of LPA, which is a ligand of EDG2, in human articular cartilage cells was analyzed. […] Twelve hours after the medium replacement, the cells were stimulated with 10 μM LPA; 0, 2, 4, 8, 12 and 24 hours later, total RNA was extracted using ISOGEN (Nippon Gene), and the amounts expressed of TNFA and IL1B, which are inflammatory cytokine genes, were quantified by a method in accordance with Example 10. […]
# Chain of EDG2 (Q92633 whole entry): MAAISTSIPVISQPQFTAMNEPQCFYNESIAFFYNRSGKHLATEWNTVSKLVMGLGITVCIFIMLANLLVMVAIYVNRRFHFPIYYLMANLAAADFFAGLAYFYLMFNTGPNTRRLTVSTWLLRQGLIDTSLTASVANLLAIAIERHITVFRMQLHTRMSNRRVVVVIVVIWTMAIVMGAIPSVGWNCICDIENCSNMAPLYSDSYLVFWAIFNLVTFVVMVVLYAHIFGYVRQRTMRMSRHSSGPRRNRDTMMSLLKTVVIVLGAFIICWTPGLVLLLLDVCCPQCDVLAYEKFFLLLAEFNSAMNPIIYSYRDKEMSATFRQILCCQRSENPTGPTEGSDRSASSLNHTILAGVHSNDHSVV
structure (smiles),measurement,setting,value
"CCCCCCCC/C=C\CCCCCCCC(=O)OC[C@@H](O)COP(=O)(O)O [LPA, 1-Oleoyl-sn-Glycero-3-Phosphate]",rises in intracellular Ca2+ concentration,EDG2,dose-dependently
same,IL1B gene expression,[1]; 0-24 hours,no expression raising reaction was observed
same,rise in amount expressed of the TNFA gene,"[1]; transiently, 2 hours after addition",about 2 folds
